Results as given in PubChem BioAssay (NCI).
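Five concentrations, 48 hours, 96-well plates. TGI denotes the concentration required for complete inhibition of growth.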

Columns and labels:
Test in all cases: DTP human tumour cell line panel, 48 h
HCT-116 colon = test system: HCT-116 colon
ACHN renal = test system: ACHN renal
NCI/ADR-RES ovarian = test system: NCI/ADR-RES ovarian
K-562 leukemia = test system: K-562 leukemia
SNB-75 CNS = test system: SNB-75 CNS
OVCAR-3 ovarian = test system: OVCAR-3 ovarian
EKVX NSCLC = test system: EKVX NSCLC
SF-268 CNS = test system: SF-268 CNS
OVCAR-8 ovarian = test system: OVCAR-8 ovarian
HCC-2998 colon = test system: HCC-2998 colon
SK-MEL-28 melanoma = test system: SK-MEL-28 melanoma
NCI-H522 lung = test system: NCI-H522 lung
T-47D breast = test system: T-47D breast
HOP-92 NSCLC = test system: HOP-92 NSCLC
MALME-3M melanoma = test system: MALME-3M melanoma
KM12 colon = test system: KM12 colon
DU-145 prostate = test system: DU-145 prostate
HS 578T breast = test system: HS 578T breast
A549 NSCLC = test system: A549 NSCLC
RXF 393 renal = test system: RXF 393 renal
SF-295 CNS = test system: SF-295 CNS
BT-549 breast = test system: BT-549 breast
U251 CNS = test system: U251 CNS
UACC-257 melanoma = test system: UACC-257 melanoma
SK-OV-3 ovarian = test system: SK-OV-3 ovarian
NCI-H23 lung = test system: NCI-H23 lung
NCI-H460 lung = test system: NCI-H460 lung
PC-3 prostate = test system: PC-3 prostate
COLO 205 colon = test system: COLO 205 colon
SW-620 colon = test system: SW-620 colon
SK-MEL-5 melanoma = test system: SK-MEL-5 melanoma
MCF7 breast = test system: MCF7 breast
MDA-N = test system: MDA-N
M14 melanoma = test system: M14 melanoma
SK-MEL-2 melanoma = test system: SK-MEL-2 melanoma
MDA-MB-435 = test system: MDA-MB-435
SNB-19 CNS = test system: SNB-19 CNS
TK-10 renal = test system: TK-10 renal
HOP-62 NSCLC = test system: HOP-62 NSCLC
MOLT-4 leukemia = test system: MOLT-4 leukemia
HT29 colon = test system: HT29 colon
OVCAR-5 ovarian = test system: OVCAR-5 ovarian
SN12C renal = test system: SN12C renal
OVCAR-4 ovarian = test system: OVCAR-4 ovarian
IGROV1 ovarian = test system: IGROV1 ovarian
LOX IMVI melanoma = test system: LOX IMVI melanoma
NCI-H226 lung = test system: NCI-H226 lung
CCRF-CEM leukemia = test system: CCRF-CEM leukemia
UACC-62 melanoma = test system: UACC-62 melanoma
RPMI-8226 leukemia = test system: RPMI-8226 leukemia
CAKI-1 renal = test system: CAKI-1 renal
UO-31 renal = test system: UO-31 renal
SF-539 CNS = test system: SF-539 CNS
MDA-MB-231 breast = test system: MDA-MB-231 breast
HCT-15 colon = test system: HCT-15 colon
786-0 renal = test system: 786-0 renal
A498 renal = test system: A498 renal
HL-60(TB) leukemia = test system: HL-60(TB) leukemia

CC1(C(=O)O)CCC(C(=O)O)C(C)(C)O1 (configuration not stated)
TGI (HCT-116 colon): > 100 µM | TGI (ACHN renal): > 100 µM | TGI (NCI/ADR-RES ovarian): > 100 µM | TGI (K-562 leukemia): > 100 µM | TGI (SNB-75 CNS): > 100 µM | TGI (OVCAR-3 ovarian): > 100 µM | TGI (EKVX NSCLC): > 100 µM | TGI (SF-268 CNS): > 100 µM | TGI (OVCAR-8 ovarian): > 100 µM | TGI (HCC-2998 colon): > 100 µM | TGI (SK-MEL-28 melanoma): > 100 µM | TGI (NCI-H522 lung): > 100 µM | TGI (T-47D breast): > 100 µM | TGI (HOP-92 NSCLC): > 100 µM | TGI (MALME-3M melanoma): > 100 µM | TGI (KM12 colon): > 100 µM | TGI (DU-145 prostate): > 100 µM | TGI (HS 578T breast): > 100 µM | TGI (A549 NSCLC): > 100 µM | TGI (RXF 393 renal): > 100 µM | TGI (SF-295 CNS): > 100 µM | TGI (BT-549 breast): > 100 µM | TGI (U251 CNS): > 100 µM | TGI (UACC-257 melanoma): > 100 µM | TGI (SK-OV-3 ovarian): > 100 µM | TGI (NCI-H23 lung): > 100 µM | TGI (NCI-H460 lung): > 100 µM | TGI (PC-3 prostate): > 100 µM | TGI (COLO 205 colon): > 100 µM | TGI (SW-620 colon): > 100 µM | TGI (SK-MEL-5 melanoma): > 100 µM | TGI (MCF7 breast): > 100 µM | TGI (MDA-N): > 100 µM | TGI (M14 melanoma): > 100 µM | TGI (SK-MEL-2 melanoma): > 100 µM | TGI (MDA-MB-435): > 100 µM | TGI (SNB-19 CNS): > 100 µM | TGI (TK-10 renal): > 100 µM | TGI (HOP-62 NSCLC): > 100 µM | TGI (MOLT-4 leukemia): > 100 µM | TGI (HT29 colon): > 100 µM | TGI (OVCAR-5 ovarian): > 100 µM | TGI (SN12C renal): > 100 µM | TGI (OVCAR-4 ovarian): > 100 µM | TGI (IGROV1 ovarian): > 100 µM | TGI (LOX IMVI melanoma): > 100 µM | TGI (NCI-H226 lung): > 100 µM | TGI (CCRF-CEM leukemia): > 100 µM | TGI (UACC-62 melanoma): > 100 µM | TGI (RPMI-8226 leukemia): > 100 µM | TGI (CAKI-1 renal): > 100 µM | TGI (UO-31 renal): > 100 µM | TGI (SF-539 CNS): > 100 µM

CC1=C[C@H](O)[C@@]2(C)[C@@H]([C@@H]1C)[C@H]1CC[C@@H]3[C@@]4(C)CC[C@H](O)C(C)(C)[C@@H]4CC[C@@]3(C)[C@]1(C)C[C@@H]2O
TGI (HCT-116 colon): 25.1 µM | TGI (NCI/ADR-RES ovarian): 44.5 µM | TGI (K-562 leukemia): 48.2 µM | TGI (OVCAR-3 ovarian): 31.4 µM | TGI (EKVX NSCLC): 25.6 µM | TGI (SF-268 CNS): 25.3 µM | TGI (OVCAR-8 ovarian): 48 µM | TGI (HCC-2998 colon): 33 µM | TGI (SK-MEL-28 melanoma): 34.4 µM | TGI (NCI-H522 lung): 38 µM | TGI (T-47D breast): 28.9 µM | TGI (HOP-92 NSCLC): 29.6 µM | TGI (MALME-3M melanoma): 40.7 µM | TGI (KM12 colon): 39.2 µM | TGI (DU-145 prostate): 31 µM | TGI (HS 578T breast): 55 µM | TGI (A549 NSCLC): 26.9 µM | TGI (RXF 393 renal): 34.1 µM | TGI (SF-295 CNS): 31.1 µM | TGI (BT-549 breast): 45.1 µM | TGI (U251 CNS): 35.2 µM | TGI (UACC-257 melanoma): 34.5 µM | TGI (SK-OV-3 ovarian): 35.7 µM | TGI (MDA-MB-231 breast): 35.1 µM | TGI (NCI-H23 lung): 45.3 µM | TGI (NCI-H460 lung): 33.4 µM | TGI (PC-3 prostate): 35.1 µM | TGI (COLO 205 colon): 37.9 µM | TGI (SW-620 colon): 47.3 µM | TGI (SK-MEL-5 melanoma): 30.4 µM | TGI (MDA-N): 29.7 µM | TGI (HCT-15 colon): 41.3 µM | TGI (M14 melanoma): 31.6 µM | TGI (SK-MEL-2 melanoma): 38.4 µM | TGI (MDA-MB-435): 39.3 µM | TGI (SNB-19 CNS): 30.1 µM | TGI (TK-10 renal): 36.8 µM | TGI (HOP-62 NSCLC): 33.4 µM | TGI (MOLT-4 leukemia): 34.5 µM | TGI (HT29 colon): 27.1 µM | TGI (OVCAR-5 ovarian): 29.4 µM | TGI (SN12C renal): 29.2 µM | TGI (OVCAR-4 ovarian): 33.7 µM | TGI (IGROV1 ovarian): 41.2 µM | TGI (LOX IMVI melanoma): 54 µM | TGI (NCI-H226 lung): 45.7 µM | TGI (CCRF-CEM leukemia): 40.5 µM | TGI (UACC-62 melanoma): 35.3 µM | TGI (CAKI-1 renal): 36.6 µM | TGI (UO-31 renal): 33.2 µM | TGI (786-0 renal): 28.2 µM

CC(C)OP(=O)(c1ccccc1)c1ccc2c(c1)OCCOCCOCCOCCO2 (configuration not stated)
TGI (HCT-116 colon): > 100 µM | TGI (ACHN renal): > 100 µM | TGI (K-562 leukemia): > 100 µM | TGI (SNB-75 CNS): > 100 µM | TGI (EKVX NSCLC): > 100 µM | TGI (SF-268 CNS): > 100 µM | TGI (OVCAR-8 ovarian): > 100 µM | TGI (HCC-2998 colon): > 100 µM | TGI (SK-MEL-28 melanoma): > 100 µM | TGI (NCI-H522 lung): > 100 µM | TGI (T-47D breast): > 100 µM | TGI (MALME-3M melanoma): > 100 µM | TGI (KM12 colon): > 100 µM | TGI (A498 renal): > 100 µM | TGI (DU-145 prostate): > 100 µM | TGI (HS 578T breast): > 100 µM | TGI (A549 NSCLC): > 100 µM | TGI (SF-295 CNS): > 100 µM | TGI (BT-549 breast): > 100 µM | TGI (UACC-257 melanoma): > 100 µM | TGI (SK-OV-3 ovarian): > 100 µM | TGI (MDA-MB-231 breast): > 100 µM | TGI (NCI-H23 lung): > 100 µM | TGI (NCI-H460 lung): > 100 µM | TGI (PC-3 prostate): > 100 µM | TGI (COLO 205 colon): > 100 µM | TGI (SW-620 colon): > 100 µM | TGI (SK-MEL-5 melanoma): > 100 µM | TGI (MCF7 breast): > 100 µM | TGI (MDA-N): > 100 µM | TGI (HCT-15 colon): > 100 µM | TGI (HL-60(TB) leukemia): > 100 µM | TGI (MDA-MB-435): > 100 µM | TGI (SNB-19 CNS): > 100 µM | TGI (TK-10 renal): > 100 µM | TGI (HOP-62 NSCLC): > 100 µM | TGI (MOLT-4 leukemia): > 100 µM | TGI (HT29 colon): > 100 µM | TGI (SN12C renal): > 100 µM | TGI (IGROV1 ovarian): > 100 µM | TGI (LOX IMVI melanoma): > 100 µM | TGI (NCI-H226 lung): > 100 µM | TGI (CCRF-CEM leukemia): > 100 µM | TGI (UACC-62 melanoma): > 100 µM | TGI (RPMI-8226 leukemia): > 100 µM | TGI (UO-31 renal): > 100 µM | TGI (SF-539 CNS): > 100 µM | TGI (786-0 renal): > 100 µM
